In publication PMC9118553, “In Vivo Bioconcentration of 10 Anionic Surfactants in Rainbow Trout Explained by In Vitro Data on Partitioning and S9 Clearance” (Environmental Science & Technology, 2022):
Like-named read-outs stand apart in the source and are kept apart here.

Key:
[1] = RT-S9 substrate depletion assay, mixture of 9 anionic surfactants (AnionMixture); conditions: for Slope of depletion curve (log concentration vs time): tested in a mixture
Protocol: (§1) An established RT-S9 substrate depletion assay was employed,[25]−[27] predating the currently available OECD guideline 319B.[28] A single batch of the characterized liver homogenate material was prepared at the US EPA lab in Duluth and shipped on dry ice to the testing facilities at the University of Amsterdam. The test was conducted using the same method applied for a series of cationic surfactants in Droge et al.[29] and is summarized together with the in vitro–in vivo extrapolation in Text S4.
(§2) Text S4: Trout liver S9 parent depletion assay details and IVIVE
(§3) Liver tissue was separately pooled from the same five rainbow trout (three males/two females, ~300 g, liver weight ~3 g) used also for the RT-S9 study on a series of cationic surfactants (Droge et al., 2021b). The liver sample was homogenized in an appropriate buffer and then centrifuged to yield a 13,000 x g supernatant (the ‘S9 fraction’, lacking only mitochondrial fractions). No further refinement towards microsomal fractions was made to remove cytosolic and lysosomal components.
(§4) Upon arrival at the University of Amsterdam the liver
(§5) S9 material was stored in a -80 °C freezer until use.
(§6) Individual chemicals were first dissolved in methanol and then further diluted to 20% methanol in 100 mM phosphate buffer to make a ~20 µM stock solution, which was then spiked as 10 µL in 190 µL of active S9 mixture. The active S9 mixture consisted of 100 mM potassium phosphate-buffered saline (PPBS) adjusted to pH 7.8, 2 mM β-NADPH, 2 mM UDPGA, 0.1 mM PAPS, 5 mM GSH, 10 μg/mL alamethicin (in methanol carrier; 0.1% v/v final concentration), and 2 mg/mL S9 protein. The substrate depletion assays were performed using the multiple vial method described in OECD TG 319B, employing two or three separately spiked series.
(§7) Reactions were performed at 11 °C in a temperature-controlled water bath (B. Braun Frigomix-R) that was placed on a 2 cm travel path shaker (Gerhardt LS 10) set at 45 rpm. As a positive […]
(§8) alkylsulfonates, no additional assays with inactivated RT-S9 were performed.
(§9) Reactions were quenched with 600 µL ice-cold acetonitrile. After 10 s vortexing and 5 min centrifugation (Hermle Z300, 2500 rpm), 100 µL clear supernatant was transferred into 300 µL glass inserts placed in new autosampler vials, and mixed with 100 µL pure water. Concentrations were measured using a Prominence UFLC-XR system (Shimadzu) coupled to a tandem mass spectrometer (QTRAP 4000, Applied Biosystems) with a Turbo Ion spray source operated at 400 ◦C. For chromatographic separations, a 100 x 2.1mm x 2.7 µm Supelco Ascentis Express column was used (40 °C), with eluent A: pure water with 2 mM ammonium acetate, and eluent […]
(§10) prepared in 50% acetonitrile/water, calibration curves used covered at least four points in a log-linear range. The lowest external standard to fit the log-linear calibration curve served as limit of quantification, requiring a peak of at least 10x the average noise.
(§11) Each vial was treated as an independent vial with recorded exposure time. Log-transformed concentration data of the parent compound were plotted against exposure time (min) and analysed using Graphpad PRISM 8. […]
(§12) the slope (min-1) was multiplied by -2.3 and by 60 (min h-1) to obtain a first order depletion rate […]
(§13) Extrapolation of kdep to whole body rate biotransformation rate constant (kB-S9) The basic approach to extrapolate first order depletion rate constants (k dep) to whole body

[2] = RT-S9 substrate depletion assay, individual compounds, with IVIVE; conditions: for CLint,S9 / CLint,in vivo set to LOD/3 for extrapolation: s9
Protocol: as §1, with “The in vitro intrinsic clearance by the S9 fraction of rainbow trout liver was measured for the same 11 anionic surfactants used in the BCF experiment as separate compounds. […] An” for “An”
as §2, §3, §4, §5, §6, §7, §8, §9, §10, §11, §12, §13

[3] = parameters: method as in REACH dossier; conditions: method as noted in the cell (shake flask, solubility ratio, HPLC, BCFBAF, pH); ref REACH dossier; cited from earlier work
[4] = ref REACH dossier; cited from earlier work
[5] = system: rainbow trout; conditions: rainbow trout carcass; cited from earlier work
[6] = both, rainbow trout, 1 µM, pH 7.8

clearance rate lower in AnionMixture compared to single compound assay (factor) [1]	Slope of depletion curve (log concentration vs time) [1]	kB-S9, biotransformation rate constant from in vitro RT-S9 assay [2]	CLint,S9 [2]	SMILES	further results
–	–	0.225 (0.21–0.24) h^–1	3.05 mL h-1 mg protein-1	CCCCCCCCCCCS(=O)(=O)O [C11SO3, undecylsulfonate]	–
twofold	-0.0202 min-1	0.151 (0.136–0.166) h^–1	2.81 mL h-1 mg protein-1	CCCCCCCCCCCOS(=O)(=O)O [C11SO4, undecylsulfate]	–
–	-0.0216 min-1	0.084 (0.059–0.109) h^–1	1.30 mL h-1 mg protein-1	CCCCCCCCCCCCOCCOCCOCCOCCOS(=O)(=O)O [C12-EO4-SO4, dodecyltetraethoxysulfate]	–
–	–	0.032 (0.028–0.036) h^–1	0.45 mL h-1 mg protein-1	CCCCCCCCCCCCCS(=O)(=O)O [C13SO3, tridecylsulfonate]	–

Further lines, the compound ahead of its results:

SMILES	clearance rate lower in AnionMixture compared to single compound assay (factor) [1]	Slope of depletion curve (log concentration vs time) [1]	kB-S9, biotransformation rate constant from in vitro RT-S9 assay [2]	CLint,S9 [2]	further results
CCCCCCCCCCc1ccc(S(=O)(=O)O)cc1 [C10-1-LAS, 1-n-(p-sulfophenyl)decane]	twofold	-0.0050 min-1	0.041 (0.037–0.045) h^–1	0.61 mL h-1 mg protein-1	–
CCCCCCCCCCS(=O)(=O)O [C10SO3, decylsulfonate]	6	-0.0111 min-1	0.366 (0.33–0.40) h^–1	4.54 mL h-1 mg protein-1	–
CCCCCCCCCCCCCOS(=O)(=O)O [C13SO4, tridecylsulfate]	–	-0.0042 min-1	0.028 (0.022–0.034) h^–1	0.40 mL h-1 mg protein-1	–
CCCCCCCCCCCCCCS(=O)(=O)O [C14SO3, tetradecylsulfonate]	–	-0.0010 min-1	0.002 ^h h^–1	n.s.	factor by which kB-S9 was less than kB-BCF [2]: 11; reaction rate set to LOD/3 for extrapolation [2]: 0.05 h⁻¹; CLint,in vivo set to LOD/3 for extrapolation [2]: ~ 3.5 mL h-1 g liver-1
CCCCCCCCCCCCCCCCS(=O)(=O)O [C16SO3, hexadecylsulfonate]	–	-0.0008 min-1	0.002 ^h h^–1	n.s.	reaction rate set to LOD/3 for extrapolation [2]: 0.05 h⁻¹; CLint,in vivo set to LOD/3 for extrapolation [2]: ~ 3.5 mL h-1 g liver-1
CCCCC(CC)COC(=O)CC(C(=O)OCC(CC)CCCC)S(=O)(=O)O (centres unmarked) [DOSS, bis(2-ethylhexyl)sulfosuccinate]	–	-0.0021 min-1	–	0.14 mL h-1 mg protein-1	LogKow [3]: 2; Degradation information ~28d-sludge test (% degradable) [4]: 91.2-100%; factor by which kB-S9 was less than kB-BCF [2, 6]: 6; kB-S9, biotransformation rate constant from in vitro RT-S9 assay [2, 6]: 0.011 (0.009–0.013) h^–1; Slope of depletion curve (log concentration vs time) ([2]; tested individually, 2 mg/mL S9 protein, 11 °C): -0.0021 min-1; BCF [5]: 3.78 L kg^–1
